Assays:
[1] = Imine (Schiff's base) formation of 2-DG with L-lysine in buffer; assay type: physicochemical
Procedure: The present invention is further illustrated by the following figures and examples, without being restricted thereto. • Fig. 1: Imine formation of 2-deoxy-D-glucose (2-DG) with L-lysine in citric acid•Na2HPO4 buffer (pH 7) at different 2-DG concentrations incubated at 37 °C. Indicated values are means (n=4) ± SEM. • Fig. 2: Imine formation of 2-deoxy-D-glucose (2-DG, 35mg/mL) with L-lysine (O.lmg/mL) in citric acid•Na2HPO4 buffer at different pH values incubated at 37 °C. Indicated values are means (n=4) ± SEM. • Fig. 3: Imine formation of 2-deoxy-D-glucose (2-DG, 35mg/mL) with L-lysine (O.lmg/mL) in citrate buffer at different pH values incubated at 37 °C. Indicated values are means (n=4) ± SEM. • Fig. 4: Imine formation of 2-deoxy-D-glucose (2-DG, 35mg/mL) with L-lysine (O.lmg/mL) in tartrate buffer at different pH values incubated at 37 °C. Indicated values are means (n=4) ± SEM. • Fig. 5: Imine formation of 2-deoxy-D-glucose (2-DG, 35mg/mL) with L-lysine (O.lmg/mL) in maleate buffer at different pH values incubated at 37 °C. Indicated values are means (n=4) ± SEM. • Fig. 6: Mucus penetration of 2-deoxy-D-glucose (2-DG), 2-fluoro-2-deoxy-D-glucose (2-FDG) or 2-fluoro-2-deoxy-D-mannose (2-FDM) (all 35mg/mL) in citrate buffer at pH5 and pH7, incubated for 30min at 37 °C. […]

[2] = Mucus penetration through mucus on a semipermeable membrane, measured via mass spectrometry; assay type: in vitro ADME; conditions: 35mg/mL in citrate buffer, pH5 versus pH7, 30min at 37 °C (Fig. 6)
Procedure: The present invention is further illustrated by the following figures and examples, without being restricted thereto. • Fig. 1: Imine formation of 2-deoxy-D-glucose (2-DG) with L-lysine in citric acid•Na2HPO4 buffer (pH 7) at different 2-DG concentrations incubated at 37 °C. Indicated values are means (n=4) ± SEM. • Fig. 2: Imine formation of 2-deoxy-D-glucose (2-DG, 35mg/mL) with L-lysine (O.lmg/mL) in citric acid•Na2HPO4 buffer at different pH values incubated at 37 °C. Indicated values are means (n=4) ± SEM. • Fig. 3: Imine formation of 2-deoxy-D-glucose (2-DG, 35mg/mL) with L-lysine (O.lmg/mL) in citrate buffer at different pH values incubated at 37 °C. Indicated values are means (n=4) ± SEM. • Fig. 4: Imine formation of 2-deoxy-D-glucose (2-DG, 35mg/mL) with L-lysine (O.lmg/mL) in tartrate buffer at different pH values incubated at 37 °C. Indicated values are means (n=4) ± SEM. • Fig. 5: Imine formation of 2-deoxy-D-glucose (2-DG, 35mg/mL) with L-lysine (O.lmg/mL) in maleate buffer at different pH values incubated at 37 °C. Indicated values are means (n=4) ± SEM. • Fig. 6: Mucus penetration of 2-deoxy-D-glucose (2-DG), 2-fluoro-2-deoxy-D-glucose (2-FDG) or 2-fluoro-2-deoxy-D-mannose (2-FDM) (all 35mg/mL) in citrate buffer at pH5 and pH7, incubated for 30min at 37 °C.
We measured the mucus penetration potential in the following manner: After applying mucus onto a semipermeable membrane, formulations containing 2-DG or analogues at indicated pH were applied onto the mucus. Penetrated 2-DG or analogues was measured via mass spectrometry.

| Mucus penetration [2] | SMILES | Imine formation ([1]; 2-DG 35mg/mL, L-lysine (O.lmg/mL), acidic pH (pH < 7.0) in citric acid•Na2HPO4, citrate, tartrate, maleate buffers, 37 °C (Fig. 2-5)) | Imine formation ([1]; with L-lysine in citric acid•Na2HPO4 buffer (pH 7), different 2-DG concentrations, 37 °C (Fig. 1)) |
| --- | --- | --- | --- |
| increased mucus penetration properties | O=CC[C@@H](O)[C@H](O)[C@H](O)CO [2-DG, 2-deoxy-D-glucose] | distinct lowering in the formation of Schiff's bases | lead to the formation of Schiff's bases (imines) |
| increased mucus penetration properties | O=C[C@H](F)[C@@H](O)[C@H](O)[C@H](O)CO [2-FDG, 2-fluoro-2-deoxy-D-glucose] | – | – |
| increased mucus penetration properties | O=C[C@@H](F)[C@@H](O)[C@H](O)[C@H](O)CO [2-FDM, 2-fluoro-2-deoxy-D-mannose] | – | – |
